# Source: US12276654B2, “Chemical probe-dependent evaluation of protein activity and uses thereof” (The University of Chicago, priority 2017, dated 2025)
# pIC50: −log10 of the molar value.
# Tests used:
# [1] = target: T1, NCEH1 (Homo sapiens, UniProt Q6PIU2); test: sADPL in situ target engagement in cancer cells, NCEH1; assay type: cell-based; design: endogenous NCEH1 activity in SKOV3 cells; endogenous in cells; host or cells: SKOV3; wild-type PC3; PAFAH2-expressing PC3; details: inhibitor prior to family-wide probe
# T1 sequence (Q6PIU2 1-408): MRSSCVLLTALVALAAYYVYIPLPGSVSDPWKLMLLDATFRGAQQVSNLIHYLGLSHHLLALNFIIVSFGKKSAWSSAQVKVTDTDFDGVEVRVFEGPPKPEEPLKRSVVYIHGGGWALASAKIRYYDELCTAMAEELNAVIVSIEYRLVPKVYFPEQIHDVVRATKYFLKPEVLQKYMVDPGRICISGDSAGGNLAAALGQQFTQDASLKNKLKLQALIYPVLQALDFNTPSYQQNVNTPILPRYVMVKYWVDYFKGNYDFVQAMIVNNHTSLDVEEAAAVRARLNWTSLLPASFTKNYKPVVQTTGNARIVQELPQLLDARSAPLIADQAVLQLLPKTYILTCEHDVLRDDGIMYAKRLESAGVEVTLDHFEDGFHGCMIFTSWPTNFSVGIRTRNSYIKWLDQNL
# Protocol: FIG. 23. In situ Target Engagement. Cancer cells were treated with DMSO as the control, with inhibitor prior to family wide probe to pre-block the active site, or with family-wide probe directly. Then sADPL workflow was applied to read out the CT difference. Serine hydrolase NCEH1 and its specific inhibitor JW480, or FAAH and inhibitor PF3845 were applied. The activity fold change was transformed from CT value with PCR amplification factor 1.91 determined by a standard qPCR curve and the activities were normalized to DMSO control at different cell lysate concentrations. […] To quantitatively measure the target engagement, different dose of JW480 was applied to either its target NCEH1, or off-target MGLL.
# As another alternative detection method, sADPL is complementary with gel-based and MS-based detection methods. In this design, the inventors treat the live cell with several family-wide probes. The probes will label all the members of the protein families. Then one could get the labeled proteome after the cell lysis. […]
# A summary of this assay is provided below: • 1. […] In the oligo design, the orthogonal forward primers were employed for different antibody to enable the multiplexing real time PCR readout. […]
# Two amine modified oligos were conjugated to antibody and streptavidin, respectively. […] A Taqman probe was designed for real time PCR quantification. […]
# [2] = target: T2, NCEH1 (Mus musculus, UniProt Q8BLF1); test: sADPL in vivo target engagement in mPBMCs after oral gavage, NCEH1; details: mice
# T2 construct: Then the mPBMCs were acquired from the mouse blood and subjected to family wide probe treatment; from tissue; host or cells: mouse blood PBMCs (mPBMCs)
# T2 sequence (Q8BLF1 1-408): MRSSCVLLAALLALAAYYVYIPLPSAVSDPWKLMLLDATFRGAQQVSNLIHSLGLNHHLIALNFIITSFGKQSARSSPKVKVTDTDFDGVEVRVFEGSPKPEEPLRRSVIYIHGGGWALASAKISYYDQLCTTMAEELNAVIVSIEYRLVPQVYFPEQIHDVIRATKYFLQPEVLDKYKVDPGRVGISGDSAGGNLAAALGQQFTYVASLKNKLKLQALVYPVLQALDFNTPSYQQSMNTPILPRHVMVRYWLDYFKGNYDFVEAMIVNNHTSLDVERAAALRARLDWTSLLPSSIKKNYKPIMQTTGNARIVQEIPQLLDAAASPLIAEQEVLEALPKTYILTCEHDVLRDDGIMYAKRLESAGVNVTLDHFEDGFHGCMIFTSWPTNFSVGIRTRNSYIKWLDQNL
# Excerpt: FIG. 25. In vivo Target Engagement. The mice were administrated with vehicle (PEG300) or NCEH1 inhibitor JW480 by oral gavage. Then the mPBMCs were acquired from the mouse blood and subjected to family wide probe treatment to profile the in vivo target engagement.
# Following the in vitro study, in vivo target engagement was planned. In this experiment, the inventors orally gavaged the mice with vehicle or inhibitors, then collected the mPBMCs for probe treatment and sADPL measurement. Again, first the activity of NCEH1 was tested in mice PBMCs, and good activity was found. The delta Ct is over 7 cycles, which is over 100 fold change.
compound,measurement,setting,value
CC(C)c1ccccc1OC(=O)NCCc1ccc2ccccc2c1 [JW480],pIC50,"[1]; cancer cells treated in situ, read-out: apparent IC50, dose-dependent inhibition of NCEH1 by sADPL",7.75
same,"NCEH1 activity in inhibitor competition group by sADPL, normalized to DMSO control",[1]; cancer cells,bring the activities down to the levels of DMSO controls
same,NCEH1 activity in mPBMCs (raw Ct values),[2]; 3 mg/kg (partial inhibition) vs vehicle PEG300,lower activity
same,NCEH1 activity in mPBMCs (raw Ct values),[2]; 80 mg/kg (complete inhibition) vs vehicle PEG300,even lower activity
